Read-outs that look alike come from different tables or passages of the source.
Key:
patient cardiac function = details: patients; abbreviations in table footnote; ref Table S1 in Sharma et al. 10; cited from earlier work
hiPSC-CMs [1] = details: cited from earlier work
hiPSC-CMs [2] = details: cited from earlier work; for hiPSC-CM cytotoxicity (in words): hiPSC-CMs
hiPSC-CMs [3] = system: hiPSC-CMs
hiPSC-CMs [4] = details: cited from earlier work; remark: listed apart in the source
hiPSC-CMs [5] = details: cited from earlier work; remark: listed apart in the source
[6] = concentration at which 50% loss in hiPSC-CM viability is observed, 72 h
[7] = 0 to 1, average of normalized CoB and LD50 corrected by Cmax, without EC or AE

SMILES	Clinically reported cardiotoxicity (patient cardiac function)	Normalized CSI (CSIN) (hiPSC-CMs [1])	LD50 (hiPSC-CMs [2])	Normalized CSI-Lite (CSINLITE) (hiPSC-CMs [3]; human)	hiPSC-CM contractility alteration (in words) (hiPSC-CMs [4])	hiPSC-CM cytotoxicity (in words) (hiPSC-CMs [2])	LD50 (hiPSC-CMs [2]; [6])	Normalized CSI-Lite (CSINLITE) (hiPSC-CMs [3]; [7])	Effect on hiPSC-CM action potential / electrophysiology (in words) (hiPSC-CMs [5])
CN(C)C/C=C/C(=O)Nc1cc2c(Nc3ccc(F)c(Cl)c3)ncnc2cc1O[C@H]1CCOC1 [Afatinib]	None	0.444	12.30 µM	0.515	–	–	–	–	–
CNC(=O)c1ccccc1Sc1ccc2c(/C=C/c3ccccn3)n[nH]c2c1 [Axitinib]	HF (rare), Hy	1.000	–	1.000	does not substantially alter	does not substantially alter	–	–	–
COc1cc(Nc2c(C#N)cnc3cc(OCCCN4CCN(C)CC4)c(OC)cc23)c(Cl)cc1Cl [Bosutinib]	–	–	–	–	–	–	12.39 µM	0.423	–
COc1cc2nccc(Oc3ccc(NC(=O)C4(C(=O)Nc5ccc(F)cc5)CC4)cc3)c2cc1OC [Cabozantinib]	None^b	0.769	–	1.000	–	–	–	–	–
C[C@@H](Oc1cc(-c2cnn(C3CCNCC3)c2)cnc1N)c1c(Cl)ccc(F)c1Cl [Crizotinib]	QT, Brady	0.063	8.60 µM	–	–	–	–	0.067	–
CC(C)(C)c1nc(-c2cccc(NS(=O)(=O)c3c(F)cccc3F)c2F)c(-c2ccnc(N)n2)s1 [Dabrafenib]	–	0.459	–	–	–	–	100.68 µM	0.561	–
Cc1nc(Nc2ncc(C(=O)Nc3c(C)cccc3Cl)s2)cc(N2CCN(CCO)CC2)n1 [Dasatinib]	QT, PE, Hy	0.524	–	0.599	–	–	42.00 µM	–	–
COc1cccc2c1C(=O)c1c(O)c3c(c(O)c1C2=O)C[C@@](O)(C(=O)CO)C[C@@H]3O[C@H]1C[C@H](N)[C@H](O)[C@H](C)O1 [Doxorubicin]	HF, LV^a	0.010	–	0.008	–	–	0.78 µM	–	–
C#Cc1cccc(Nc2ncnc3cc(OCCOC)c(OCCOC)cc23)c1 [Erlotinib]	MI (rare)	0.653	87.60 µM	0.570	–	–	–	–	–
COc1cc2ncnc(Nc3ccc(F)c(Cl)c3)c2cc1OCCCN1CCOCC1 [Gefitinib]	None	–	–	–	–	–	–	–	–
C=CC(=O)N1CCC[C@@H](n2nc(-c3ccc(Oc4ccccc4)cc3)c3c(N)ncnc32)C1 [Ibrutinib]	–	0.507	–	0.580	–	–	–	–	–
CS(=O)(=O)CCNCc1ccc(-c2ccc3ncnc(Nc4ccc(OCc5cccc(F)c5)c(Cl)c4)c3c2)o1 [Lapatinib]	LV, QT^b	0.209	–	0.190	–	–	100.76 µM	–	–
Cc1cn(-c2cc(NC(=O)c3ccc(C)c(Nc4nccc(-c5cccnc5)n4)c3)cc(C(F)(F)F)c2)cn1 [Nilotinib]	QT, LV, Vas^a	–	29.00 µM	0.148	–	–	–	–	–
Cc1ccc(Nc2nccc(N(C)c3ccc4c(C)n(C)nc4c3)n2)cc1S(N)(=O)=O [Pazopanib]	QT, LV (rare)^b	0.671	–	–	–	–	–	1.000	–
Cc1ccc(C(=O)Nc2ccc(CN3CCN(C)CC3)c(C(F)(F)F)c2)cc1C#Cc1cnc2cccnn12 [Ponatinib]	–	–	–	–	–	–	4.30 µM	0.225	–
CNC(=O)c1cc(Oc2ccc(NC(=O)Nc3ccc(Cl)c(C(F)(F)F)c3)c(F)c2)ccn1 [Regorafenib]	MI, Hy^b	0.010	–	–	–	–	7.10 µM	0.010	–
CNC(=O)c1cc(Oc2ccc(NC(=O)Nc3ccc(Cl)c(C(F)(F)F)c3)cc2)ccn1 [Sorafenib]	QT, LV, HF, MI, Hy	0.004	3.40 µM	0.003	–	highly cytotoxic to hiPSC-CMs	–	–	–
CCN(CC)CCNC(=O)c1c(C)[nH]c(/C=C2\C(=O)Nc3ccc(F)cc32)c1C [Sunitinib]	HF, LV, MI, QT, Hy^b	0.218	12.70 µM	0.292	–	–	–	–	–
CC(=O)Nc1cccc(-n2c(=O)n(C3CC3)c(=O)c3c(Nc4ccc(I)cc4F)n(C)c(=O)c(C)c32)c1 [Trametinib]	–	–	–	1.000	–	–	66.80 µM	–	–
COc1cc2c(Nc3ccc(Br)cc3F)ncnc2cc1OCC1CCN(C)CC1 [Vandetanib]	QT, TdP, SCD, HF, Hy^a	0.041	–	–	elicited arrhythmias and alterations in hiPSC-CM contractility	–	20.60 µM	0.056	caused changes in hiPSC-CM electrophysiology and action potential duration
CCCS(=O)(=O)Nc1ccc(F)c(C(=O)c2c[nH]c3ncc(-c4ccc(Cl)cc4)cc23)c1F [Vemurafenib]	–	0.003	–	–	–	–	32.10 µM	0.002	–

Source: paper PMC6502639 (Nature protocols, 2018)
